One compound from patent US5607937A, “Piperazides of substituted phenylalanine derivatives as thrombin inhibitors” (priority 1993, dated 1997) can be followed below.

For one data set, the target named is plasma kallikrein (Homo sapiens, UniProt P03952). The data set is described as follows: inhibition of plasma kallikrein, dissociation constant Ki.
Data set [1] concerns stasis-induced venous thrombosis in the rat. Nature of the data set: antithrombotic efficacy, stasis-induced venous thrombosis model (Wessler). It counts as in vivo. The following applies: for Thrombus scale 0 (vein segments): 0=liquid blood; for Thrombus scale 1 (vein segments): 1=one or several small thrombi; for Thrombus scale 2 (vein segments): 2=not fully closed vascular segment; for Thrombus scale 3 (vein segments): 3=fully closed vascular segment. The procedure: The antithrombotic activity of the compounds was determined in the rat on the model of the stasis-induced thrombosis according to Wessler et al. (J. Appl. Physiol. 14, 943-946, 1959). The thrombus was induced by serum 30 min after application of the inhibitor and macroscopically evaluated after 10 further min.
After rectal application, the compounds of the present invention are absorbed to an extent leading to antithrombotically active plasma levels. This has been shown with the model of the stasis-induced venous thrombosis in the rat according to Wessler et al. This method consisted in macroscopically evaluating thrombi induced by serum in jugular vein segments by means of a scale (0=liquid blood, 1=one or several small thrombi, 2=not fully closed vascular segment, 3=fully closed vascular segment). The antithrombotic effect is clearly dose-dependent.
The relative thrombus scale is the quotient of the mean thrombus size of the treated group (e.g. the mean value at 5 mg/kg is 1.2) and the mean thrombus size of the control group (2.9).

A short description of another data set: in vivo. The following applies: plasma, rat, intraduodenal 100 mg/kg.
Data set [2] concerns coagulation in human plasma. The data set is described as follows: thrombin time (TT) in human plasma.

Sequence of plasma kallikrein (P03952 391-638 limits assumed, species assumed): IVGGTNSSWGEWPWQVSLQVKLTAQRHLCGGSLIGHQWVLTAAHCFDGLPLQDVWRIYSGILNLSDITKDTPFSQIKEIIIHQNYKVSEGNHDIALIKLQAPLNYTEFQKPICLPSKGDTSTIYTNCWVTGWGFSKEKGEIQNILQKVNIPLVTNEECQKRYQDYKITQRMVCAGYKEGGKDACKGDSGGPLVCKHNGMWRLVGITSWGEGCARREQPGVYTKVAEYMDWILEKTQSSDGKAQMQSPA
Sequence of plasma kallikrein (P03952 20-390 partner limits assumed, species assumed): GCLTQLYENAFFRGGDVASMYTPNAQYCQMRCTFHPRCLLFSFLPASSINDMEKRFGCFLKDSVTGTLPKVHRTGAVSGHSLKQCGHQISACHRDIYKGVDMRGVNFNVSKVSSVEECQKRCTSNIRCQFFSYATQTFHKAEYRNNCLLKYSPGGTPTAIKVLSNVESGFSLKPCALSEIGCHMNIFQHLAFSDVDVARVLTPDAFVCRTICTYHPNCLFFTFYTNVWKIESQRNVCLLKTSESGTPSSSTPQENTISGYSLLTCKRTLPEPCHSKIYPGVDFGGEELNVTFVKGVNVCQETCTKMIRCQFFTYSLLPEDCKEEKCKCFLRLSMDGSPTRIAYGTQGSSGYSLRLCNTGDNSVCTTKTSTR

`CC(=O)N1CCN(C(=O)[C@H](Cc2cccc(C(=N)N)c2)NS(=O)(=O)c2ccc3ccccc3c2)CC1.Cl` [Compound 2, Nα-(2-naphthylsulfonyl)-(L)-3-amidinophenylalanine-4-acetylpiperazide hydrochloride]: the affinity on plasma kallikrein corresponds to a Ki of 15 µM. For the same compound, in data set [1] (rectal 5 mg/kg), the “Thrombus scale 0 (vein segments)” value is 0, the “Thrombus scale 1 (vein segments)” value was determined as 8, the “Thrombus scale 2 (vein segments)” value is 2 and the “Thrombus scale 3 (vein segments)” value is reported as 0. The “mean thrombus size of the treated group” value in data set [1] (rectal 5 mg/kg, scale 0-3, control 2.9) was 1.2. In addition, in data set [1] (rectal 20 mg/kg), the “Thrombus scale 0 (vein segments)” value was 6, the “Thrombus scale 1 (vein segments)” value came out at 1, the “Thrombus scale 2 (vein segments)” value is reported as 0 and the “Thrombus scale 3 (vein segments)” value is 0. For the same compound, in data set [1] (rectal 100 mg/kg), the “Thrombus scale 0 (vein segments)” value is listed as 6, the “Thrombus scale 1 (vein segments)” value was 0, the “Thrombus scale 2 (vein segments)” value was 0 and the “Thrombus scale 3 (vein segments)” value is listed as 0. For the same compound, the concentration at 0.5 h in the data set “in vivo” (30 min) is 21700 ng/mL. Moreover, in the data set “in vivo” (60 min), the concentration at 1 h was 15200 ng/mL. Further, in the data set “in vivo” (120 min), the concentration at 2 h came to 4280 ng/mL. In addition, the concentration at 3 h in the data set “in vivo” (180 min) worked out at 2600 ng/mL. In addition, in “in vivo” (240 min), the concentration at 4 h worked out at 2180 ng/mL. In the data set “in vivo” (300 min), this compound registered a concentration at 5 h of 2200 ng/mL. Besides, in “in vivo” (360 min), the concentration at 6 h came out at 2850 ng/mL. For the same compound, in data set [2], the “Concentr. to double the Thrombin time” value was found to be 0.055 µmol/L and the “concentration to double the TT” value is recorded as “less than 10^-7 mol/1”.
